Measured values taken from patent US20260191802A1, “DRUG TO TREAT STIMULANT ADDICTION” (SINGLE DOSE THERAPEUTICS, INC., priority 2023, published 2026).

What was measured:
[1] = Onset of therapeutic effect after oral administration; assay type: in vivo; settings: orally administered
Source text: The objective of the present disclosure is to improve the standard of care in treating mental disorders, such as StUD, by facilitating extinction learning through the administration of a therapeutically effective amount of bromantane or an analogue thereof. While bromantane or an analogue of bromantane can be administered uncompounded, administering a pharmaceutical preparation that ensures consistent absorption and fosters patient adherence to the treatment regimen is advantageous. For example, the onset of therapeutic effect for orally administered crystalline bromantane free base is slow (2-3 hours) due to solubility-limited absorption and high first-pass extraction. Preparations that improve bromantane's solubility or bioavailability to produce a faster onset of therapeutic effect are advantageous for addressing acute incentive salience expeditiously in the treatment of StUD, thereby increasing the likelihood of patient adherence to the treatment regimen and reducing the likelihood of relapse. Accordingly, the present disclosure also provides novel, advantageous pharmaceutical preparations of bromantane and their methods of use.

[2] = Dynamic Vapor Sorption (DVS) isothermal water sorption and desorption; assay type: physicochemical; settings: 25° C. and 80% RH
Method: The solubility advantage imparted by a specific salt form of bromantane compared to the free base form cannot be predicted with certainty because the interactions of the counterion with the therapeutic agent and dissolution medium are unique and complex. Empirical testing is necessary. Dynamic Vapor Sorption (DVS) testing was performed to compare the isothermal water sorption and desorption behaviors of bromantane free base Form I [FIG. 22] with that of bromantane hydrochloride Form I [FIG. 23].

[3] = Aqueous equilibrium solubility, slurry in water, HPLC of supernatant; assay type: physicochemical; settings: 24 hours of equilibration at room temperature
[4] = test system: participants who had self-reported drug dependencies to a drug of concern; assay: Exploratory study of bromantane intervention in participants with self-reported drug dependencies; assay type: in vivo, human
Method: To investigate the utility of bromantane as a single-agent pharmacological intervention to interrupt stimulant dependence, an exploratory study was conducted with participants who had self-reported drug dependencies to a drug of concern. The intervention consisted of Test Article (bromantane) administered at a dose of 50 mg qd po for 7 days, starting on the first day of Week 1 of the study. Results from the exploratory study are summarized in [FIG. 2]. The number of days the drug of concern was used by the participant during each 1-week period during the 4-week study is shown in the Drug Dependency column.
In addition to being an effective single-agent pharmacological intervention to interrupt stimulant dependence, it was discovered that bromantane has utility as a treatment for certain comorbidities that are specifically underpinned by maladaptive learning, such as occupational burnout exacerbated by conditioned fear responses and attention-deficit/hyperactivity disorder arising from inhibitory control dysfunction. […] Therefore, the present disclosure also provides novel therapeutic methods of use for bromantane to facilitate extinction learning in the treatment of mental disorders or syndromes.

[5] = participants with cocaine or amphetamine dependencies, 50 mg qd po for 7 days, 4-week study

In the case of Brc1ccc(NC2C3CC4CC(C3)CC2C4)cc1 (stereo not drawn) [bromantane free base Form I], the “onset of therapeutic effect” value [1] is reported as 2 to 3 h, the “hygroscopicity (water gain by DVS)” value [2] is reported as “non-hygroscopic (x<0.2% w/w gain at 25 °C and 80% RH)” and the “equilibrium solubility in water (solution state concentration of bromantane)” value [3] is reported as “below the detection limit”.
In the case of Brc1ccc(NC2C3CC4CC(C3)CC2C4)cc1 (stereo not drawn) [bromantane], the “cravings and withdrawal syndrome associated with addiction to stimulants of abuse” value ([4]; amphetamine, methamphetamine, cocaine) is reported as “eliminates or significantly reduces”, the “counterproductive behaviors and thought patterns triggered by conditioned stimuli” value ([4]; analysis of subjective effects reported by participants) is reported as “pronounced reduction” and the secondary dependence ([4]; in vivo) is reported as “without leading to secondary dependence”. For the same compound, the opioid use ([4]; participant with opioid dependence, during the period of intervention, 50 mg qd po for 7 days) was “reduction in opioid use”, the “abstinence from drug of concern” value [4, 5] was “achieved abstinence on the first day of intervention” and the “duration of maintained abstinence” value [4, 5] was “maintain abstinence for approximately three weeks”. For the same compound, the caffeine use ([4]; participants, 50 mg qd po for 7 days) was “unplanned reduction in caffeine use”, the “insomnia caused by rumination” value ([4]; self-reported by participants) was “Alleviation of insomnia” and the “temperament (threshold for irritability or anger)” value ([4]; self-reported by participants) was “improved temperaments”.
